This is an account of results in patent publication US20260256921A1, “BIFUNCTIONAL MOLECULES TO TARGET DEGRADATION OF TUMOR NECROSIS FACTOR” (Biohaven Therapeutics Ltd., priority 2023, published 2026).

Structures are written as SMILES. Read-outs that look alike come from different tables or passages of the source.

Experiment [1] concerns the target T1, human TNF-α (Homo sapiens, UniProt P01375). Kind of experiment: TNF-α thermal melt assay. The format is binding. Also on record: Amino acids 77-233 of Human TNF-α protein with an N-terminal GST tag; GST (N, cleaved yes); made in house; host or cells: Escherichia coli (BL21 NiCo). On the procedure: Protein was purified using glutathione agarose purification columns (Pierce™, Waltham, MA, USA). Following purification, the GST tag was removed using HRV3c protease (Pierce™, Waltham, MA, USA) and the GST tag and the TNF-α were separated via ion exchange chromatography using a 20 mM HEPES pH 8.0 buffer system ramping from 0 to 1 M NaCl over 12 column volumes with 5 ml of Q Sepharose (HiScreen Q HP, Cytiva™, Marlborough, MA, USA). The final protein includes the amino acids GPLGSG at the N-terminus of the protein.
Protein was heated from 20° C. to 95° C. at one degree per minute in a Roche Opus384 qPCR machine.
Target sequence in this assay (P01375 77-233): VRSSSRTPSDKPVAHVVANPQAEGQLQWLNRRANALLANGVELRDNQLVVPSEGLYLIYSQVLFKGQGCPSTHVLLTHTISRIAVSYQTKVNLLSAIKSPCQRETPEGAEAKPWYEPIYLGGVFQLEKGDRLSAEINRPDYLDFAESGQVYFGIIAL

In experiment [2] the target is T1, human TNF-α. Kind of experiment: TNF-α functional assay (hHEK-TNF-α SEAP reporter cells). More on the design: purchased ACROBiosystems TNA-H4211. The format is cell-based. An excerpt: Human HEK TNF-αcells (hHEK-TNF-α cells; InvivoGen Catalog #hkb-tnfdmyd; San Diego, CA, USA) are human embryonic kidney HEK293 cells that are stably transfected with the reporter gene, secreted alkaline phosphatase (SEAP). The hHEK-TNF-α cells allow for the detection of bioactive human and murine TNF-α via the activation of the NF-kB-inducible promoter and subsequent production of SEAP. Bioactivity of commercial human TNF-α protein (ActiveMax® Human TNF-α Protein, Tag Free, Low Endotoxin; available by ACROBiosystems Catalog #TNA-H4211; Newark, DE, USA) was determined in this reporter system.
Test molecules were dissolved in 100% DMSO and serially diluted by either 3-fold serial dilution or 4-fold serial dilution. […] TNF-α protein was added at the previously determined ECso. Plates containing cells, test molecules, and cytokine were incubated overnight for 18-24 hours at 37° C., 5% CO2.
The level of SEAP in the supernatant of each well was quantified using the Quanti Blue™ Solution (InvivoGen Catalog #rep-qba2; San Diego, CA, USA), a reagent with a colorimetric change in the presence of SEAP. To perform the Quanti-Blue assay: 20 L of the sample supernatant after the overnight 18-24 hour incubation was added to 180 L of Quanti Blue™ Reagent and incubated for 45 minutes at 37° C. […] Inhibition of TNF-α signaling was calculated utilizing GraphPad Prism (San Diego, CA, USA).
Target sequence in this assay (P01375 77-233 limits assumed): as the sequence (P01375 77-233) above

Where [3] appears, read: hHEK-TNF-α cells, SEAP readout, TNF-α added at EC80 (1.034 pM), 18-24 hours, read-out: TNF-α Function IC50.
The mark [4] stands for this setting: thermal melt, SYPRO Orange, Kd calculated as in Matulis et al., read-out: TM Kd.

Broadly, the Kd is the concentration at which binding is half-saturated. The IC50 is the concentration that inhibits the measured activity by half. Compound `CN1CCN(Cc2ccc(-c3c[nH]c4ccncc34)c(OCCc3ccc(-c4cccc5ccncc45)cc3)c2)CC1` [Intermediate 25] came in with a Kd at human TNF-α [1] of less than 1 nM. It took 240 nM to reach half-maximal inhibition against human TNF-α [2] (IC50).

Take `O=C(O)CCOCCOCCOCCOCCOCCOCCC(=O)N1CCN(Cc2ccc(-c3c[nH]c4ccncc34)c(OCCc3ccc(-c4cccc5ccncc45)cc3)c2)CC1` [Intermediate 19]: the IC50 at human TNF-α [2] (setting [3]) came out at 370 nM.

Regarding `CC(C)(C)OC(=O)CCOCCOCCC(=O)N1CCN(Cc2ccc(-c3c[nH]c4ccncc34)c(OCCc3ccc(-c4cccc5ccncc45)cc3)c2)CC1` [Intermediate 23], the Kd on human TNF-α [1] (setting [4]) is 31 nM. Further, at human TNF-α [2] (setting [3]), the concentration for half-maximal inhibition (IC50) is 337 nM.

Consider `CC(C)(C)OC(=O)CCOCCOCCOCCOCCOCCOCCC(=O)N1CCN(Cc2ccc(-c3c[nH]c4ccncc34)c(OCCc3ccc(-c4cccc5ccncc45)cc3)c2)CC1` [Intermediate 18], for which, at human TNF-α [2] (setting [3]), the IC50 is 810 nM.

Regarding `O=C(O)CCOCCOCCC(=O)N1CCN(Cc2ccc(-c3c[nH]c4ccncc34)c(OCCc3ccc(-c4cccc5ccncc45)cc3)c2)CC1` [Intermediate 24], the Kd on human TNF-α [1] (setting [4]) is 220 nM. The half-maximal inhibitory concentration (IC50) at human TNF-α [2] (setting [3]) is 247 nM.

`O=C(O)CCOCCOCCOCCOCCOCCOCCOCCOCCC(=O)N1CCN(Cc2ccc(-c3c[nH]c4ccncc34)c(OCCc3ccc(-c4cccc5ccncc45)cc3)c2)CC1` [Intermediate 4]: the Kd on human TNF-α [1] (setting [4]) was 69 nM. The IC50 at human TNF-α [2] (setting [3]) was 230 nM.

With `CC(C)(C)OC(=O)CCOCCOCCOCCOCCOCCOCCOCCOCCC(=O)N1CCN(Cc2ccc(-c3c[nH]c4ccncc34)c(OCCc3ccc(-c4cccc5ccncc45)cc3)c2)CC1` [Intermediate 3], the dissociation constant (Kd) at human TNF-α [1] (setting [4]) was 120 nM. On human TNF-α [2] (setting [3]), the IC50 was 1000 nM.
